How the values were obtained:
[1] = biological target: T1, human TGR5 (h-TGR5) (Homo sapiens, UniProt Q8TDU6); assay: TGR5/CRE-Luciferiase Assay (HEK 293 hTGR5/CRE-Luc cells); type: cell-based; conditions: h-TGR5 CRE-Luc EC50, Table 1; read-out: CRE-Luc (EC50)
T1 construct: expressed in transfected cells
T1 sequence (Q8TDU6 1-330): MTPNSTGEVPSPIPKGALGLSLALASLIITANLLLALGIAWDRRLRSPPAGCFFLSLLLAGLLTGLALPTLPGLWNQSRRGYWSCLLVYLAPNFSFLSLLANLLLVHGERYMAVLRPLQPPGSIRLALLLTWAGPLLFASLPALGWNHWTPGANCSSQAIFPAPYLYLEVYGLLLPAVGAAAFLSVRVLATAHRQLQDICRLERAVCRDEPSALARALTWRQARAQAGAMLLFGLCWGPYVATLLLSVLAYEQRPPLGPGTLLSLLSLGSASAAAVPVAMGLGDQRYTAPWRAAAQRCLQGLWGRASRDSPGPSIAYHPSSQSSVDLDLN
Procedure, shortened: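 HEK293 cells stably carrying hTGR5 and a CRE-luciferase reporter were exposed to serially diluted compounds (diluted in DMEM with 5% DMSO) for 6 h. Cells were then lysed in luciferase buffer, luminescence was read, and EC50 values were derived from dose-response curves.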

[2] = biological target: T2, h-TGR5 (Homo sapiens, UniProt Q8TDU6); assay: TGR5 cAMP Assay using Cisbio cAMP Dynamic2 htrf kit (hTGR5CRE-luc HEK 293 cells); type: cell-based; conditions: h-TGR5 cAMP EC50, Table 1; read-out: cAMP (EC50)
T2 construct: expressed in transfected cells
T2 sequence (Q8TDU6 1-330): T1 sequence (Q8TDU6 1-330)
Procedure, shortened: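 […], 4000 hTGR5CRE-luc HEK 293 cells per well, with 0.5 mM IBMX and d2-cAMP, were incubated 30 min at room temperature with compounds in 8-point half-log series, in quadruplicate.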

Structure (SMILES)	EC50 [1]	EC50 [2]
COc1cc(C(C)(C)c2cnc(SCc3ccc(C(=O)O)c(F)c3)n2-c2ccc(F)cc2)ccc1Cl [4-({[5-{1-[4-chloro-3-(methyloxy)phenyl]-1-methylethyl}-1-(4-fluorophenyl)-1H-imidazol-2-yl]thio}methyl)-2-fluorobenzoic acid]	100 to 1000 nM	< 100 nM
COc1cc(C(C)(C)c2cnc(SCc3c(F)cc(S(=O)(=O)NC(=O)NN4CCOCC4)cc3F)n2-c2ccc(F)cc2)ccc1Cl [4-({[5-{1-[4-chloro-3-(methyloxy)phenyl]-1-methylethyl}-1-(4-fluorophenyl)-1H-imidazol-2-yl]thio}methyl)-3,5-difluoro-N-[(morpholin-4-ylamino)carbonyl]benzenesulfonamide]	< 100 nM	< 100 nM
COc1cc(C(C)(C)c2cnc(SCc3c(F)cc(C(=O)NO)cc3F)n2-c2ccc(F)cc2)ccc1Cl [4-({[5-{1-[4-chloro-3-(methyloxy)phenyl]-1-methylethyl}-1-(4-fluorophenyl)-1H-imidazol-2-yl]thio}methyl)-3,5-difluoro-N-hydroxybenzamide]	< 100 nM	< 100 nM
COc1cc(C(C)(C)c2cnc(SCc3ccc(S(=O)(=O)NC(=O)NN4CCCC4)cc3F)n2-c2ccc(F)cc2)ccc1Cl [4-({[5-{1-[4-chloro-3-(methyloxy)phenyl]-1-methylethyl}-1-(4-fluorophenyl)-1H-imidazol-2-yl]thio}methyl)-3-fluoro-N-[(pyrrolidin-1-ylamino)carbonyl]benzenesulfonamide]	< 100 nM	100 to 1000 nM
COc1cc(C(C)(C)c2cnc(SCc3ccnc(N)c3)n2-c2ccc(F)cc2)ccc1Cl [4-({[5-{1-[4-chloro-3-(methyloxy)phenyl]-1-methylethyl}-1-(4-fluorophenyl)-1H-imidazol-2-yl]thio}methyl)pyridin-2-amine]	100 to 1000 nM	100 to 1000 nM
COc1cc(C(C)(C)c2cnc(SCc3c(F)cc(S(=O)(=O)NC(=O)NN4CCOCC4)cc3F)n2-c2ccc(F)cn2)ccc1Cl [4-({[5-{1-[4-chloro-3-(methyloxy)phenyl]-1-methylethyl}-1-(5-fluoropyridin-2-yl)-1H-imidazol-2-yl]thio}methyl)-3,5-difluoro-N-[(morpholin-4-ylamino)carbonyl]benzenesulfonamide]	100 to 1000 nM	100 to 1000 nM
COc1cc(C(C)(C)c2cnc(SCc3c(F)cc(C(=O)O)cc3F)n2-c2ccc(F)cc2)ccc1Cl [4-({[5-{l-[4-chloro-3-(methyloxy)phenyl]-1-methylethyl}-1-(4-fluorophenyl)-1H-imidazol-2-yl]thio}methyl)-3,5-difluorobenzoic acid]	< 100 nM	< 100 nM
CC(C)(c1ccc(Cl)c(Cl)c1)c1cnc(SCC2CCN(S(C)(=O)=O)CC2)n1-c1ccc(F)c(Cl)c1 [4-[({1-(3-chloro-4-fluorophenyl)-5-[1-(3,4-dichlorophenyl)-1-methylethyl]-1H-imidazol-2-yl}thio)methyl]-1-(methylsulfonyl)piperidine]	< 100 nM	100 to 1000 nM
CC(C)(c1ccc(Cl)c(Cl)c1)c1c(Cl)nc(SCc2c(F)cc(C(=O)O)cc2F)n1-c1ccc(F)cc1 [4-[({4-chloro-5-[1-(3,4-dichlorophenyl)-1-methylethyl]-1-(4-fluorophenyl)-1H-imidazol-2-yl}thio)methyl]-3,5-difluorobenzoic acid]	100 to 1000 nM	100 to 1000 nM
CC(C)(c1ccc(Cl)c(Cl)c1)c1cnc(COC2CCN(S(C)(=O)=O)CC2)n1-c1ccc(F)cc1 [4-[({5-[1-(3,4-dichlorophenyl)-1-methylethyl]-1-(4-fluorophenyl)-1H-imidazol-2-yl}methyl)oxy]-1-(methylsulfonyl)piperidine]	1000 to 10000 nM	100 to 1000 nM
CC(C)(c1ccc(Cl)c(Cl)c1)c1cnc(SCC2CCN(c3nnn[nH]3)CC2)n1-c1ccc(F)cc1 [4-[({5-[1-(3,4-dichlorophenyl)-1-methylethyl]-1-(4-fluorophenyl)-1H-imidazol-2-yl}thio)methyl]-1-(1H-tetrazol-5-yl)piperidine]	< 100 nM	100 to 1000 nM
CC(C)(c1ccc(Cl)c(Cl)c1)c1cnc(SCc2c(F)cc(C(N)=O)cc2F)n1-c1ccc(F)cc1 [4-[({5-[1-(3,4-dichlorophenyl)-1-methylethyl]-1-(4-fluorophenyl)-1H-imidazol-2-yl}thio)methyl]-3,5-difluorobenzamide]	100 to 1000 nM	100 to 1000 nM
CC(C)(c1ccc(Cl)c(Cl)c1)c1cnc(SCc2c(F)cc(C(=O)O)cc2F)n1-c1ccc(F)cc1 [4-[({5-[1-(3,4-dichlorophenyl)-1-methylethyl]-1-(4-fluorophenyl)-1H-imidazol-2-yl}thio)methyl]-3,5-difluorobenzoic acid]	< 100 nM	100 to 1000 nM
CC(C)(O)CNC(=O)c1ccc(CSc2ncc(C(C)(C)c3ccc(Cl)c(Cl)c3)n2-c2ccc(F)cc2)c(F)c1 [4-[({5-[1-(3,4-dichlorophenyl)-1-methylethyl]-1-(4-fluorophenyl)-1H-imidazol-2-yl}thio)methyl]-3-fluoro-N-(2-hydroxy-2-methylpropyl)benzamide]	100 to 1000 nM	100 to 1000 nM
CC(C)(c1ccc(Cl)c(Cl)c1)c1cnc(SCc2ccc(S(N)(=O)=O)cc2F)n1-c1ccc(F)cc1 [4-[({5-[1-(3,4-dichlorophenyl)-1-methylethyl]-1-(4-fluorophenyl)-1H-imidazol-2-yl}thio)methyl]-3-fluorobenzenesulfonamide]	100 to 1000 nM	100 to 1000 nM
CC(C)(c1ccc(Cl)c(Cl)c1)c1cnc(SCc2ccc(C(=O)O)cc2F)n1-c1ccc(F)cc1 [4-[({5-[1-(3,4-dichlorophenyl)-1-methylethyl]-1-(4-fluorophenyl)-1H-imidazol-2-yl}thio)methyl]-3-fluorobenzoic acid]	100 to 1000 nM	100 to 1000 nM
COc1cc(-n2c(C(C)(C)c3ccc(Cl)c(Cl)c3)cnc2SCC2CCN(c3nnn[nH]3)CC2)ccc1F [4-[({5-[1-(3,4-dichlorophenyl)-1-methylethyl]-1-[4-fluoro-3-(methyloxy)phenyl]-1H-imidazol-2-yl}thio)methyl]-1-(1H-tetrazol-5-yl)piperidine]	< 100 nM	< 100 nM

Results, then the molecule that gave them:

EC50 [1]	EC50 [2]	Structure (SMILES)
< 100 nM	< 100 nM	COc1cc(C(C)(C)c2cnc(SCC3CCN(S(C)(=O)=O)CC3)n2-c2ccc(F)cc2)ccc1Cl [4-({[5-{1-[4-chloro-3-(methyloxy)phenyl]-1-methylethyl}-1-(4-fluorophenyl)-1H-imidazol-2-yl]thio}methyl)-1-(methylsulfonyl)piperidine]
< 100 nM	< 100 nM	COc1cc(C(C)(C)c2cnc(SCc3c(F)cc(S(N)(=O)=O)cc3F)n2-c2ccc(F)cc2)ccc1Cl [4-({[5-{1-[4-chloro-3-(methyloxy)phenyl]-1-methylethyl}-1-(4-fluorophenyl)-1H-imidazol-2-yl]thio}methyl)-3,5-difluorobenzenesulfonamide]
< 100 nM	< 100 nM	COc1cc(C(C)(C)c2cnc(SCc3ccc(C(=O)O)cc3F)n2-c2ccc(F)cc2)ccc1Cl [4-({[5-{1-[4-chloro-3-(methyloxy)phenyl]-1-methylethyl}-1-(4-fluorophenyl)-1H-imidazol-2-yl]thio}methyl)-3-fluorobenzoic acid]
< 100 nM	100 to 1000 nM	CC(C)(c1ccc(Cl)c(Cl)c1)c1cnc(SCC2CCN(c3nnn[nH]3)CC2)n1-c1ccc(F)c(Cl)c1 [4-[({1-(3-chloro-4-fluorophenyl)-5-[1-(3,4-dichlorophenyl)-1-methylethyl]-1H-imidazol-2-yl}thio)methyl]-1-(1H-tetrazol-5-yl)piperidine]
< 100 nM	< 100 nM	Cc1cc(-n2c(C(C)(C)c3ccc(Cl)c(Cl)c3)cnc2SCc2c(F)cc(C(=O)O)cc2F)ccc1F [4-[({5-[1-(3,4-dichlorophenyl)-1-methylethyl]-1-(4-fluoro-3-methylphenyl)-1H-imidazol-2-yl}thio)methyl]-3,5-difluorobenzoic acid]
< 100 nM	100 to 1000 nM	CC(C)(c1ccc(Cl)c(Cl)c1)c1cnc(SCC2CCN(S(C)(=O)=O)CC2)n1-c1ccc(F)cc1 [4-[({5-[1-(3,4-dichlorophenyl)-1-methylethyl]-1-(4-fluorophenyl)-1H-imidazol-2-yl}thio)methyl]-1-(methylsulfonyl)piperidine]
< 100 nM	< 100 nM	CC(C)(c1ccc(Cl)c(Cl)c1)c1cnc(SCc2c(F)cc(C(=O)NO)cc2F)n1-c1ccc(F)cc1 [4-[({5-[1-(3,4-dichlorophenyl)-1-methylethyl]-1-(4-fluorophenyl)-1H-imidazol-2-yl}thio)methyl]-3,5-difluoro-N-hydroxybenzamide]
100 to 1000 nM	100 to 1000 nM	CC(C)(c1ccc(Cl)c(Cl)c1)c1cnc(SCc2ccc(C(=O)NCCc3c[nH]cn3)cc2F)n1-c1ccc(F)cc1 [4-[({5-[1-(3,4-dichlorophenyl)-1-methylethyl]-1-(4-fluorophenyl)-1H-imidazol-2-yl}thio)methyl]-3-fluoro-N-[2-(1H-imidazol-4-yl)ethyl]benzamide]
< 100 nM	100 to 1000 nM	CC(C)(c1ccc(Cl)c(Cl)c1)c1cnc(SCc2c(F)cc(C(=O)O)cc2F)n1-c1ccc(F)c(C(F)F)c1 [4-[({5-[1-(3,4-dichlorophenyl)-1-methylethyl]-1-[3-(difluoromethyl)-4-fluorophenyl]-1H-imidazol-2-yl}thio)methyl]-3,5-difluorobenzoic acid]
